From patent US9745276B2, “Crystal modifications of elobixibat” (Elobix AB, priority 2013, dated 2017) come the findings set out here.

Common to all, as to assay type: physicochemical
The nature of series [1]: Thermal gravimetric analysis (TGA) of water/solvent content. Conditions: heated at 10° C./min from 25° C., dry nitrogen purge. How it is done: Approximately 1-5 mg of sample was added to a tared Platinum cup which was then placed in the weighting position of a Perkin-Elmer Pyris 1 TGA analyzer. The furnace was raised and the starting weight of the sample was recorded. The heating program was then started. The sample was heated at a rate of 10° C./min, starting at 25° C. and ending at 90-300° C., depending on where a constant temperature could be attained. The sample was purged with dry nitrogen gas during analysis.
A sample of crystal modification IV was analyzed with XRPD and the water content was checked with TGA. The weight loss for crystal modification IV was initially slow, but accelerated at about 50° C. and was finalized at about 80° C. A weight loss of 2.7% w/w was observed.
A sample of crystal modification I was analyzed with XRPD and the water content was checked with TGA. […] A weight loss of 0.99% w/w was observed.
The solvent content of a sample of EtOH-1 was analyzed with TGA.

Series [2] can be described thus: Dynamic Vapor Sorption (DVS) analysis. Conditions: after drying with dry nitrogen, two sorption-desorption cycles, 0 to 10% RH. How it is done:
Approximately 15-20 mg of the sample was weighed into a quartz receptacle, which was then released of static electricity by exposing it to a radioactive source. The quartz receptacle was then positioned in a Surface Measurements System Ltd DVS Advantage instrument. The sample was dried with dry nitrogen gas until a dm/dt below 0.002% per minute was reached. The instrument was running in dm/dt-mode using a dm/dt window of 5 minutes, a minimum stage time of 10 minutes and a maximum stage time of 360 minutes. The sample was then subjected to two consecutive sorption-desorption cycles, using d/m/dt-mode parameters above, and each cycle running from 0-95-0% relative humidity (% RH). One cycle consisted of 20 steps, those between 0-90% RH were taken in 10% RH each.
A sample of crystal modification IV was weighed into the quartz scale pan of a Scientific Instruments Dynamic Vapor Sorption instrument. The sample was released of static electricity by moving a radioactive isotope over it and was then put into the instrument. The sample was dried by flushing dry nitrogen gas until the weight was constant and then two consecutive sorption-desorption cycles were run. Crystal modification IV absorbs approximately 2.45% water between 0 and 10% RH, and an additional 0.36 to 0.37% water between 10 and 60% RH. […]

The nature of series [3]: Relative thermodynamic stability of crystal modifications. Conditions: normal conditions (21° C., 10-30% relative humidity).
A short description of series [4]: Storage stability of the crystal modification (XRPD). How it is done: Dry samples were lightly ground in an agate mortar, if needed, and were then smeared out on a sample holder. Slurry samples were added to the sample holder as wet and were analyzed both wet and dry. XRPD data were collected on a cut Silicon Zero Background Holder (ZBH) or on a Porous Alumina Filter Sample Holder, using a PANalytical X'Pert Pro diffractometer, equipped with an X'celerator or a PIXcel detector. The sample was spun during analysis and Cu-radiation was used. The following experimental settings were used:
A batch of crystal modification IV was stored in a closed glass vial and kept at 20° C. and between 20 and 60% RH for 17 months.

Take `CCCCC1(CCCC)CN(c2ccccc2)c2cc(SC)c(OCC(=O)N[C@@H](C(=O)NCC(=O)O)c3ccccc3)cc2S(=O)(=O)C1` [EtOH-1, N-{(2R)-2-[({[3,3-dibutyl-7-(methyl-thio)-1,1-dioxido-5-phenyl-2,3,4,5-tetrahydro-1,5-benzothiazepin-8-yl]oxy}acetyl)amino]-2-phenylethanolyl}glycine]: in series [1], the TGA weight loss entry was “approximately 6 % w/w”.
Regarding `CCCCC1(CCCC)CN(c2ccccc2)c2cc(SC)c(OCC(=O)N[C@@H](C(=O)NCC(=O)O)c3ccccc3)cc2S(=O)(=O)C1` [crystal modification I, N-{(2R)-2-[({[3,3-dibutyl-7-(methyl-thio)-1,1-dioxido-5-phenyl-2,3,4,5-tetrahydro-1,5-benzothiazepin-8-yl]oxy}acetyl)amino]-2-phenylethanolyl}glycine], in series [2], the “water absorbed between 0 and 10% RH” value was “approximately 0.66%”. In series [1], this molecule had a TGA weight loss of 0.99 % w/w.
In the case of `CCCCC1(CCCC)CN(c2ccccc2)c2cc(SC)c(OCC(=O)N[C@@H](C(=O)NCC(=O)O)c3ccccc3)cc2S(=O)(=O)C1` [crystal modification IV, N-{(2R)-2-[({[3,3-dibutyl-7-(methyl-thio)-1,1-dioxido-5-phenyl-2,3,4,5-tetrahydro-1,5-benzothiazepin-8-yl]oxy}acetyl)amino]-2-phenylethanolyl}glycine], the “thermodynamic stability compared with crystal modification I and other crystal modifications of elobixibat” value in series [3] is listed as “more thermodynamically stable”. The “crystalline form by XRPD after storage” value in series [4] (closed glass vial, 20° C., between 20 and 60% RH, 17 months) is given as “unchanged”. In addition, in series [4] (such as under ambient, open conditions), the “time of storage for which found stable” value is recorded as at least 17 months. For the same molecule, in series [2], the “water absorbed between 0 and 10% RH” value is listed as “approximately 2.45%”. The TGA weight loss in series [1] is given as 2.7 % w/w.
